Reference: PubChem BioAssay AID256 (DTP/NCI, 2004)
Toxic doses and inconclusive results are not listed. How the source made its calls: active means survival T/C of 150% or more; inactive means T/C below 125% in these data.

Test system: CD2F1 mice, L1210 leukemia ip, survival T/C
Test: NCI In Vivo Anticancer Drug Screen. Data for tumor model L1210 Leukemia (intraperitoneal) in CD2F1 (CDF1) mice
Conditions: higher = longer survival
How it was run: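 Each value reflects a quotient of treated over vehicle control outcomes in mice with a transplanted tumor.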

[1] = endpoint: mean survival time, dose: 100.0 mg/kg/injection, schedule: Q01DX009 (ip), vehicle: saline with Tween-80
[2] = endpoint: mean survival time, dose: 200.0 mg/kg/injection, schedule: Q01DX009 (ip), vehicle: saline with Tween-80
[3] = endpoint: mean survival time, dose: 400.0 mg/kg/injection, schedule: Q01DX009 (ip), vehicle: saline with Tween-80
[4] = endpoint: mean survival time, dose: 100.0 mg/kg/injection, schedule: Q04DX003 (ip), vehicle: saline
[5] = endpoint: mean survival time, dose: 200.0 mg/kg/injection, schedule: Q04DX003 (ip), vehicle: saline
[6] = endpoint: mean survival time, dose: 50.0 mg/kg/injection, schedule: Q04DX003 (ip), vehicle: saline
[7] = endpoint: mean survival time, dose: 100.0 mg/kg/injection, schedule: Q01DX009 (ip), vehicle: saline
[8] = endpoint: mean survival time, dose: 100.0 mg/kg/injection, schedule: Q04DX002 (ip), vehicle: saline with Tween-80
[9] = endpoint: mean survival time, dose: 200.0 mg/kg/injection, schedule: Q04DX002 (ip), vehicle: saline with Tween-80
[10] = endpoint: mean survival time, dose: 100.0 mg/kg/injection, schedule: Q04DX003 (ip), vehicle: saline with Tween-80
[11] = endpoint: mean survival time, dose: 200.0 mg/kg/injection, schedule: Q01DX009 (ip), vehicle: saline
[12] = endpoint: mean survival time, dose: 200.0 mg/kg/injection, schedule: Q04DX003 (ip), vehicle: saline with Tween-80
[13] = endpoint: mean survival time, dose: 400.0 mg/kg/injection, schedule: Q04DX003 (ip), vehicle: saline with Tween-80
[14] = endpoint: mean survival time, dose: 400.0 mg/kg/injection, schedule: Q04DX002 (ip), vehicle: saline with Tween-80

Measured: T/C

CCC[CH2][Sn]1([CH2]CCC)[O]OC(C)(CC)[O]1 (configuration not stated)
inactive: endpoint: mean survival time, dose: 0.78 mg/kg/injection, schedule: Q01DX009 (ip), vehicle: saline with Tween-80 95 % of control | endpoint: mean survival time, dose: 1.56 mg/kg/injection, schedule: Q01DX009 (ip), vehicle: saline with Tween-80 110 % of control | endpoint: mean survival time, dose: 3.13 mg/kg/injection, schedule: Q01DX009 (ip), vehicle: saline with Tween-80 112 % of control

O=C1CC(c2ccc([N+](=O)[O-])cc2)=Nc2ccccc2N1
inactive: [1] 102 % of control | [2] 101 % of control | [3] 96 % of control

Nc1ccccc1O
inactive: [1] 114 % of control | [4] 100 % of control | [2] 114 % of control | [5] 96 % of control | endpoint: mean survival time, dose: 400.0 mg/kg/injection, schedule: Q04DX003 (ip), vehicle: saline 119 % of control

Cc1ccc(C2=C(Br)C(=O)C(c3ccc(C)cc3C)=C(Br)C2=O)c(C)c1
inactive: endpoint: mean survival time, dose: 100.0 mg/kg/injection, schedule: Q01DX001 (ip), vehicle: saline with Tween-80 92 % of control | endpoint: mean survival time, dose: 200.0 mg/kg/injection, schedule: Q01DX001 (ip), vehicle: saline with Tween-80 92 % of control | endpoint: mean survival time, dose: 400.0 mg/kg/injection, schedule: Q01DX001 (ip), vehicle: saline with Tween-80 101 % of control

O=[N+]([O-])c1ccc(N(CCO)CCO)c2c1no[n+]2[O-]
inactive: endpoint: median survival time, dose: 12.5 mg/kg/injection, schedule: Q01DX009 (ip), vehicle: saline with Tween-80 114 % of control | endpoint: median survival time, dose: 25.0 mg/kg/injection, schedule: Q01DX009 (ip), vehicle: saline with Tween-80 111 % of control | endpoint: median survival time, dose: 50.0 mg/kg/injection, schedule: Q01DX009 (ip), vehicle: saline with Tween-80 114 % of control

CC(C)NC(=S)S
inactive: endpoint: mean survival time, dose: 25.0 mg/kg/injection, schedule: Q01DX009 (ip), vehicle: saline 100 % of control | endpoint: mean survival time, dose: 25.0 mg/kg/injection, schedule: Q04DX003 (ip), vehicle: saline 100 % of control | endpoint: mean survival time, dose: 50.0 mg/kg/injection, schedule: Q01DX009 (ip), vehicle: saline 94 % of control | [6] 105 % of control | [7] 109 % of control | [4] 103 % of control

CCCCNC(=S)N/N=C/c1ccccn1
inactive: [8] 98 % of control | [9] 109 % of control

COc1ccn(C2OCCC(N=[N+]=[N-])C2O)c(=O)n1 (configuration not stated)
inactive: endpoint: median survival time, dose: 12.5 mg/kg/injection, schedule: Q01DX005 (ip), vehicle: alkali diluted with saline 109 % of control | endpoint: median survival time, dose: 25.0 mg/kg/injection, schedule: Q01DX005 (ip), vehicle: alkali diluted with saline 102 % of control | endpoint: median survival time, dose: 50.0 mg/kg/injection, schedule: Q01DX005 (ip), vehicle: alkali diluted with saline 108 % of control | endpoint: median survival time, dose: 100.0 mg/kg/injection, schedule: Q01DX005 (ip), vehicle: alkali diluted with saline 109 % of control | endpoint: median survival time, dose: 200.0 mg/kg/injection, schedule: Q01DX005 (ip), vehicle: alkali diluted with saline 98 % of control

c1nc(Sc2ncnc3nc[nH]c23)c2[nH]cnc2n1
active: endpoint: mean survival time, dose: 300.0 mg/kg/injection, schedule: Q01DX009 (ip), vehicle: saline with Tween-80 169 % of control
inactive: endpoint: mean survival time, dose: 75.0 mg/kg/injection, schedule: Q01DX009 (ip), vehicle: saline with Tween-80 123 % of control

CSc1nc(Cl)cc(Sc2nc(N)nc3nc[nH]c23)n1
inactive: endpoint: mean survival time, dose: 150.0 mg/kg/injection, schedule: Q01DX009 (ip), vehicle: Klucel (hydroxypropylcellulose) (HPC) 97 % of control
active: endpoint: mean survival time, dose: 18.75 mg/kg/injection, schedule: Q01DX009 (ip), vehicle: Klucel (hydroxypropylcellulose) (HPC) 173 % of control | endpoint: mean survival time, dose: 37.5 mg/kg/injection, schedule: Q01DX009 (ip), vehicle: Klucel (hydroxypropylcellulose) (HPC) 175 % of control

CCC(/C=C/C(C)C1CCC2C3CC=C4CC(O)CCC4(C)C3CCC12C)C(C)C (configuration not stated) (tested in a mixture with another compound)
inactive: endpoint: mean survival time, dose: 12.5 mg/kg/injection, schedule: Q01DX001 (ip), vehicle: water 97 % of control | endpoint: mean survival time, dose: 12.5 mg/kg/injection, schedule: Q01DX009 (ip), vehicle: water 100 % of control | endpoint: mean survival time, dose: 25.0 mg/kg/injection, schedule: Q01DX001 (ip), vehicle: water 97 % of control | endpoint: mean survival time, dose: 25.0 mg/kg/injection, schedule: Q01DX009 (ip), vehicle: other 94 % of control | endpoint: mean survival time, dose: 25.0 mg/kg/injection, schedule: Q01DX009 (ip), vehicle: water 103 % of control | endpoint: mean survival time, dose: 50.0 mg/kg/injection, schedule: Q01DX001 (ip), vehicle: water 102 % of control | endpoint: mean survival time, dose: 50.0 mg/kg/injection, schedule: Q01DX009 (ip), vehicle: other 91 % of control | endpoint: mean survival time, dose: 50.0 mg/kg/injection, schedule: Q01DX009 (ip), vehicle: water 96 % of control | [1] 94 % of control | [2] 89 % of control

CC(=O)Nc1cccc(Oc2ccc([N+](=O)[O-])cc2)c1
inactive: endpoint: mean survival time, dose: 100.0 mg/kg/injection, schedule: Q04DX002 (ip), vehicle: Klucel (hydroxypropylcellulose) (HPC) 98 % of control | endpoint: mean survival time, dose: 200.0 mg/kg/injection, schedule: Q04DX002 (ip), vehicle: Klucel (hydroxypropylcellulose) (HPC) 103 % of control | endpoint: mean survival time, dose: 400.0 mg/kg/injection, schedule: Q04DX002 (ip), vehicle: Klucel (hydroxypropylcellulose) (HPC) 98 % of control

C1=NCCN1
inactive: [7] 106 % of control | [10] 97 % of control | [11] 89 % of control | [12] 97 % of control | [13] 90 % of control

CCc1cc[c]([Sb](=[O])([OH])[OH])cc1
inactive: [6] 89 % of control | [4] 101 % of control | [5] 101 % of control

CCOC(=O)C1C(=O)CC(c2ccccc2)C(C#N)(c2ccccc2)C1(O)c1ccccc1 (configuration not stated)
inactive: [8] 90 % of control | [9] 90 % of control | [14] 90 % of control

Nc1ccn([C@H]2C[C@@H](CO)[C@H](O)[C@@H]2O)c(=O)n1
active: endpoint: mean survival time, dose: 22.0 mg/kg/injection, schedule: Q03HX024 (ip), vehicle: saline 159 % of control | endpoint: mean survival time, dose: 33.0 mg/kg/injection, schedule: Q03HX024 (ip), vehicle: saline 164 % of control | endpoint: mean survival time, dose: 50.0 mg/kg/injection, schedule: Q03HX024 (ip), vehicle: saline 169 % of control | endpoint: mean survival time, dose: 75.0 mg/kg/injection, schedule: Q04HX024 (ip), vehicle: saline 176 % of control | endpoint: mean survival time, dose: 100.0 mg/kg/injection, schedule: Q04HX024 (ip), vehicle: saline 177 % of control | endpoint: mean survival time, dose: 150.0 mg/kg/injection, schedule: Q01DX009 (ip), vehicle: saline 150 % of control | [11] 182 % of control | endpoint: mean survival time, dose: 450.0 mg/kg/injection, schedule: Q01DX009 (ip), vehicle: saline 166 % of control

Cc1nnc(NS(=O)(=O)c2ccc(N=Nc3nc4[nH]c(N)nc(=S)c4[nH]3)cc2)s1
inactive: endpoint: mean survival time, dose: 12.5 mg/kg/injection, schedule: Q01DX009 (ip), vehicle: Klucel (hydroxypropylcellulose) (HPC) 110 % of control | endpoint: mean survival time, dose: 25.0 mg/kg/injection, schedule: Q01DX009 (ip), vehicle: Klucel (hydroxypropylcellulose) (HPC) 116 % of control | endpoint: mean survival time, dose: 50.0 mg/kg/injection, schedule: Q01DX009 (ip), vehicle: Klucel (hydroxypropylcellulose) (HPC) 122 % of control

O=C(O)C(=O)Cc1ccc2c(c1)OCO2
inactive: endpoint: mean survival time, dose: 100.0 mg/kg/injection, schedule: Q01DX001 (ip), vehicle: saline 98 % of control | endpoint: mean survival time, dose: 200.0 mg/kg/injection, schedule: Q01DX001 (ip), vehicle: saline 104 % of control | endpoint: mean survival time, dose: 400.0 mg/kg/injection, schedule: Q01DX001 (ip), vehicle: saline 98 % of control

COC1OC2COC(c3ccccc3)OC2C2OC12 (configuration not stated)
inactive: [1] 94 % of control | [2] 92 % of control | [3] 97 % of control

CNC(=O)N(C)CC(O)C(O)C(O)C(O)CO (configuration not stated)
inactive: [10] 97 % of control | [12] 104 % of control | [13] 106 % of control

CCOC(=O)C1C2CC(O)C(O)CC21 (configuration not stated)
inactive: endpoint: median survival time, dose: 25.0 mg/kg/injection, schedule: Q04DX003 (ip), vehicle: saline with Tween-80 90 % of control | endpoint: median survival time, dose: 50.0 mg/kg/injection, schedule: Q04DX003 (ip), vehicle: saline with Tween-80 90 % of control

COc1ccc(C(=O)C/C(=N\N(C(=O)c2ccc(OC)cc2)c2ccccc2)c2ccc(OC)cc2)cc1
inactive: [10] 95 % of control | [12] 97 % of control

COC(=O)c1ccc(OC)c(I)c1
inactive: [8] 98 % of control | [9] 123 % of control | [14] 98 % of control

N=C(N)SCc1cccc([N+](=O)[O-])c1
inactive: [8] 97 % of control
